{"source": "patent US20200079773A1", "about": "“CARBOXYLIC ACID DERIVATIVES OF PYRIDOQUINAZOLINES USEFUL AS PROTEIN KINASE INHIBITORS” (ONCOSTELLAE, S.L., priority 2017, published 2020)", "type_in_all_cases": "biochemical", "key": {"[1]": {"target": "T1, JAK2 (Homo sapiens, UniProt O60674)", "T1 construct": "purchased Carna Biosciences 08-045", "T1 sequence (O60674 826-1132 limits assumed)": "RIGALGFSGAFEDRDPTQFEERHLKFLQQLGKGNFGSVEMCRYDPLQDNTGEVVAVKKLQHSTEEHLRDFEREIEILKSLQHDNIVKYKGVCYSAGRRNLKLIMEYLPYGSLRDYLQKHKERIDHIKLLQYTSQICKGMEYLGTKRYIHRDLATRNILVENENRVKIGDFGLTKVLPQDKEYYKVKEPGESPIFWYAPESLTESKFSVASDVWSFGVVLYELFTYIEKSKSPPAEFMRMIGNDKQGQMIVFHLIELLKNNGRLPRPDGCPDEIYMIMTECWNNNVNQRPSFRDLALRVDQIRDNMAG", "test": "Functional assay of protein kinases (Caliper mobility shift), JAK2", "settings": "ATP 300 μM, 30 min incubation", "protocol": "(§1) Functional Assays of Protein Kinases\n(§2) The functional assays of protein kinases were carried out in 384-well plates using a final volume of 30 μl. […] The reaction was reads in a “Caliper EzReader LabChip 3000” (Caliper, Hopkinton, Mass.) reader, based on electrophoretic mobility of the fluorescent substrate and the phosphorylated product.\n(§3) The inhibition percentages were calculated by comparison between control reactions, for 100% of inhibition and reactions with only DMSO for 0% of inhibition."}, "[2]": {"target": "T2, JAK1 (Homo sapiens, UniProt P23458)", "T2 construct": "purchased Carna Biosciences 08-144", "T2 sequence (P23458 850-1154 limits assumed)": "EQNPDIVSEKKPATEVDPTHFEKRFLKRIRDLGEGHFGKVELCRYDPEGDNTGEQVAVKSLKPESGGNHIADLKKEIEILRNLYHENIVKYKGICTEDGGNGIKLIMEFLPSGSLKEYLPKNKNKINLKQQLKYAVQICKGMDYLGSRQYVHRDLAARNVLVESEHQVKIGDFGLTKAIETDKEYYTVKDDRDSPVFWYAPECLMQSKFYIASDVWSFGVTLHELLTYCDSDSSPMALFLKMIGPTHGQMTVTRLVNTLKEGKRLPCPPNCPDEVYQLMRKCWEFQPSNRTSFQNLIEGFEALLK", "test": "Functional assay of protein kinases (Caliper mobility shift), JAK1", "settings": "ATP 100 μM, 150 min incubation", "protocol": "as §1, §2, §3"}, "[3]": {"target": "T3, JAK3 (Homo sapiens, UniProt P52333)", "T3 construct": "purchased Carna Biosciences 08-046", "T3 sequence (P52333 795-1124 limits assumed)": "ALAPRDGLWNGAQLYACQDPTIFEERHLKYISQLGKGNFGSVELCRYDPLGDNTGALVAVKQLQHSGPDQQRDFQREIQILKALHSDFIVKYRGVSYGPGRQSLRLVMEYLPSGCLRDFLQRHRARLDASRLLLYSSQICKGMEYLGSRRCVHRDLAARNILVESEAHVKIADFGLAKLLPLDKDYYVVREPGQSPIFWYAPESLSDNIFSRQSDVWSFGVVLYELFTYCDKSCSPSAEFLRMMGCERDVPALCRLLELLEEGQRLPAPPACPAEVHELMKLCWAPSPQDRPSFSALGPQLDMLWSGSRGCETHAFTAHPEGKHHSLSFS", "test": "Functional assay of protein kinases (Caliper mobility shift), JAK3", "settings": "ATP 8 μM, 30 min incubation", "protocol": "as §1, §2, §3"}, "[4]": {"target": "T4, TYK2 (Homo sapiens, UniProt P29597)", "T4 construct": "purchased Carna Biosciences 08-147", "T4 sequence (P29597 871-1187 limits assumed)": "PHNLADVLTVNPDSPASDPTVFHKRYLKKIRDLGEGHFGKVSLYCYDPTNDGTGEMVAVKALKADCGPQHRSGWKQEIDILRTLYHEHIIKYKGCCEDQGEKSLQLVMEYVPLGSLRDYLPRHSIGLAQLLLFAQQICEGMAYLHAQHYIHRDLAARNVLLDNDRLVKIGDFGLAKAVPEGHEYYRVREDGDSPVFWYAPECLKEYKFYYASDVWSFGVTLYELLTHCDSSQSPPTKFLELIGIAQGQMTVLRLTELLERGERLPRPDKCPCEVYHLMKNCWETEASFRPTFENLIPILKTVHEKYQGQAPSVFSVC", "test": "Functional assay of protein kinases (Caliper mobility shift), TYK2", "settings": "ATP 20 μM, 45 min incubation", "protocol": "as §1, §2, §3"}}, "note": "pIC50: −log10 of the molar value."}
{"smiles": "O=C(NC1CCC(C(=O)O)CC1)c1cccn2c(=O)c3cc(C4CC4)ccc3nc12", "note": "(centres unmarked) [Example 1, 4-(2-cyclpropyl-11-oxo-11H-pyrido[2,1-b]quinazoline-6-carboxamido)cyclohexane-1-carboxylic acid]", "values": [{"measurement": "pIC50", "setting": "[1]", "result": "≤ 6.00"}, {"measurement": "pIC50", "setting": "[2]", "result": "≤ 6.00"}, {"measurement": "pIC50", "setting": "[3]", "result": "> 7.00"}]}
{"smiles": "Cc1ccc(-c2ccc3nc4c(C(=O)N[C@H]5CC[C@@H](C(=O)O)CC5)cccn4c(=O)c3c2)s1", "note": "[Example 2, (1S,4S)-4-(2-(5-methylthiophen-2-yl)-11-oxo-11H-pyrido[2,1-b]quinazoline-6 carboxamido)cyclohexane-1-carboxylic acid]", "values": [{"measurement": "pIC50", "setting": "[4]", "result": "> 7.00"}, {"measurement": "pIC50", "setting": "[3]", "result": "> 7.00"}]}
{"smiles": "O=C(NC1CCC(C(=O)O)CC1)c1cccn2c(=O)c3cc(C4CC4)ccc3nc12", "note": "[Example 4, (1R,4R)-4-(2-cyclopropyl-11-oxo-11H-pyrido[2,1-b]quinazoline-6-carboxamido)cyclohexane-1-carboxylic acid]", "values": [{"measurement": "pIC50", "setting": "[1]", "result": "≤ 6.00"}, {"measurement": "pIC50", "setting": "[4]", "result": "≤ 6.00"}, {"measurement": "pIC50", "setting": "[2]", "result": "≤ 6.00"}, {"measurement": "pIC50", "setting": "[3]", "result": "6.00 to 7.00"}]}
{"smiles": "O=C(NC1CCC(C(=O)O)CC1)c1cccn2c(=O)c3cc(O)ccc3nc12", "note": "(centres unmarked) [Example 19, 4-(2-hydroxy-11-oxo-11H-pyrido[2,1-b]quinazoline-6-carboxamido)cyclohexane-1-carboxylic acid]", "values": [{"measurement": "pIC50", "setting": "[4]", "result": "6.00 to 7.00"}, {"measurement": "pIC50", "setting": "[3]", "result": "6.00 to 7.00"}]}
{"smiles": "O=C(N[C@H]1CC[C@@H](C(=O)O)CC1)c1cccn2c(=O)c3cc(-c4cccc(F)c4)ccc3nc12", "note": "[Example 29, (cis)-4-(2-(3-fluorophenyl)-11-oxo-11H-pyrido[2,1-b]quinazoline-6-carboxamido)cyclohexane-1-carboxylic acid]", "values": [{"measurement": "pIC50", "setting": "[4]", "result": "> 7.00"}, {"measurement": "pIC50", "setting": "[3]", "result": "> 7.00"}]}
{"smiles": "O=C(N[C@H]1CC[C@@H](C(=O)O)CC1)c1cccn2c(=O)c3cc(-c4ccc(F)c(F)c4)ccc3nc12", "note": "[Example 30, (cis)-4-(2-(3,4-difluorophenyl)-11-oxo-11H-pyrido[2,1-b]quinazoline-6-carboxamido)cyclohexane-1-carboxylic acid]", "values": [{"measurement": "pIC50", "setting": "[4]", "result": "> 7.00"}, {"measurement": "pIC50", "setting": "[3]", "result": "> 7.00"}]}
{"smiles": "N#Cc1ccc(-c2ccc3nc4c(C(=O)N[C@H]5CC[C@@H](C(=O)O)CC5)cccn4c(=O)c3c2)cc1", "note": "[Example 31, (cis)-4-(2-(4-cyanophenyl)-11-oxo-11H-pyrido[2,1-b]quinazoline-6-carboxamido)cyclohexane-1-carboxylic acid]", "values": [{"measurement": "pIC50", "setting": "[4]", "result": "> 7.00"}, {"measurement": "pIC50", "setting": "[3]", "result": "> 7.00"}]}
{"smiles": "N#Cc1cccc(-c2ccc3nc4c(C(=O)N[C@H]5CC[C@@H](C(=O)O)CC5)cccn4c(=O)c3c2)c1", "note": "[Example 32, (cis)-4-(2-(3-cyanophenyl)-11-oxo-11H-pyrido[2,1-b]quinazoline-6-carboxamido)cyclohexane-1-carboxylic acid]", "values": [{"measurement": "pIC50", "setting": "[4]", "result": "> 7.00"}, {"measurement": "pIC50", "setting": "[3]", "result": "> 7.00"}]}
{"smiles": "O=C(O)c1ccc(-c2ccc3nc4c(C(=O)N[C@H]5CC[C@@H](C(=O)O)CC5)cccn4c(=O)c3c2)cc1", "note": "[Example 33, 4-(6-(((cis)-4-carboxycyclohexyl)carbamoyl)-11-oxo-11H-pyrido[2,1-b]quinazolin-2-yl)benzoic acid]", "values": [{"measurement": "pIC50", "setting": "[4]", "result": "> 7.00"}, {"measurement": "pIC50", "setting": "[3]", "result": "> 7.00"}]}
{"smiles": "O=C(N[C@H]1CC[C@@H](C(=O)O)CC1)c1cccn2c(=O)c3cc(-c4cccnc4)ccc3nc12", "note": "[Example 34, (cis)-4-(11-oxo-2-(pyridin-3-yl)-11H-pyrido[2,1-b]quinazoline-6-carboxamido)cyclohexane-1-carboxylic acid]", "values": [{"measurement": "pIC50", "setting": "[4]", "result": "> 7.00"}, {"measurement": "pIC50", "setting": "[3]", "result": "> 7.00"}]}
{"smiles": "O=C(N[C@H]1CC[C@H](C(=O)O)CC1)c1cccn2c(=O)c3cc(-c4ccncc4)ccc3nc12", "note": "[Example 35, (trans)-4-(11-oxo-2-(pyridin-4-yl)-11H-pyrido[2,1-b]quinazoline-6-carboxamido)cyclohexane-1-carboxylic acid]", "values": [{"measurement": "pIC50", "setting": "[4]", "result": "≤ 6.00"}, {"measurement": "pIC50", "setting": "[3]", "result": "6.00 to 7.00"}]}
{"smiles": "O=C(N[C@H]1CC[C@@H](C(=O)O)CC1)c1cccn2c(=O)c3cc(-c4ccncc4F)ccc3nc12", "note": "[Example 36, (cis)-4-(2-(3-fluoropyridin-4-yl)-11-oxo-11H-pyrido[2,1-b]quinazoline-6-carboxamido)cyclohexane-1-carboxylic acid]", "values": [{"measurement": "pIC50", "setting": "[4]", "result": "6.00 to 7.00"}, {"measurement": "pIC50", "setting": "[3]", "result": "> 7.00"}]}
{"smiles": "O=C(N[C@H]1CC[C@@H](C(=O)O)CC1)c1cccn2c(=O)c3cc(-c4cncnc4)ccc3nc12", "note": "[Example 37, (cis)-4-(11-oxo-2-(pyrimidin-5-yl)-11H-pyrido[2,1-b]quinazoline-6-carboxamido)cyclohexane-1-carboxylic acid]", "values": [{"measurement": "pIC50", "setting": "[4]", "result": "6.00 to 7.00"}, {"measurement": "pIC50", "setting": "[3]", "result": "> 7.00"}]}
{"smiles": "Cn1cc(-c2ccc3nc4c(C(=O)N[C@H]5CC[C@@H](C(=O)O)CC5)cccn4c(=O)c3c2)cn1", "note": "[Example 38, (cis)-4-(2-(1-methyl-1H-pyrazol-4-yl)-11-oxo-11H-pyrido[2,1-b]quinazoline-6-carboxamido)cyclohexane-1-carboxylic acid]", "values": [{"measurement": "pIC50", "setting": "[4]", "result": "> 7.00"}, {"measurement": "pIC50", "setting": "[3]", "result": "> 7.00"}]}
{"smiles": "O=C(N[C@H]1CC[C@@H](C(=O)O)CC1)c1cccn2c(=O)c3cc(-c4cccs4)ccc3nc12", "note": "[Example 39, (cis)-4-(11-oxo-2-(thiophen-2-yl)-11H-pyrido[2,1-b]quinazoline-6-carboxamido)cyclohexane-1-carboxylic acid]", "values": [{"measurement": "pIC50", "setting": "[4]", "result": "> 7.00"}, {"measurement": "pIC50", "setting": "[3]", "result": "> 7.00"}]}
{"smiles": "O=C(N[C@H]1CC[C@@H](C(=O)O)CC1)c1cc(Br)cn2c(=O)c3ccccc3nc12", "note": "[Example 40, (cis)-4-(8-bromo-11-oxo-11H-pyrido[2,1-b]quinazoline-6-carboxamido)cyclohexane-1-carboxylic acid]", "values": [{"measurement": "pIC50", "setting": "[4]", "result": "> 7.00"}, {"measurement": "pIC50", "setting": "[3]", "result": "6.00 to 7.00"}]}
{"smiles": "O=C(NC1CC(C(=O)O)C1)c1cccn2c(=O)c3cc(C4CC4)ccc3nc12", "note": "(centres unmarked) [Example 41, 3-(2-cyclopropyl-11-oxo-11H-pyrido[2,1-b]quinazoline-6-carboxamido)cyclobutane-1-carboxylic acid]", "values": [{"measurement": "pIC50", "setting": "[4]", "result": "6.00 to 7.00"}, {"measurement": "pIC50", "setting": "[3]", "result": "6.00 to 7.00"}]}
{"smiles": "N#Cc1ccc(-c2ccc3nc4c(C(=O)N[C@H]5CC[C@@H](C(=O)O)CC5)cccn4c(=O)c3c2)s1", "note": "[Example 42, (1S,4S)-4-(2-(5-cyanothiophen-2-yl)-11-oxo-11H-pyrido[2,1-b]quinazoline-6-carboxamido)cyclohexane-1-carboxylic acid]", "values": [{"measurement": "pIC50", "setting": "[4]", "result": "> 7.00"}, {"measurement": "pIC50", "setting": "[3]", "result": "> 7.00"}]}
{"smiles": "NC(=O)c1ccc(-c2ccc3nc4c(C(=O)N[C@H]5CC[C@@H](C(=O)O)CC5)cccn4c(=O)c3c2)s1", "note": "[Example 43, (1S,4S)-4-(2-(5-carbamoylthiophen-2-yl)-11-oxo-11H-pyrido[2,1-b]quinazoline-6-carboxamido)cyclohexane-1-carboxylic acid]", "values": [{"measurement": "pIC50", "setting": "[4]", "result": "> 7.00"}, {"measurement": "pIC50", "setting": "[3]", "result": "> 7.00"}]}
{"smiles": "Cn1cnc(-c2ccc3nc4c(C(=O)N[C@H]5CC[C@@H](C(=O)O)CC5)cccn4c(=O)c3c2)c1", "note": "[Example 44, (1S,4S)-4-(2-(1-methyl-1H-Imidazol-4-yl)-11-oxo-11H-pyrido[2,1-b]quinazoline-6-carboxamido)cyclohexane-1-carboxylic acid]", "values": [{"measurement": "pIC50", "setting": "[4]", "result": "> 7.00"}, {"measurement": "pIC50", "setting": "[3]", "result": "> 7.00"}]}
{"smiles": "O=C(N[C@H]1CC[C@@H](C(=O)O)CC1)c1cccn2c(=O)c3cc(-c4ccc(C5CC5)s4)ccc3nc12", "note": "[Example 45, (1S,4S)-4-(2-(5-cyclpropylthiophen-2-yl)-11-oxo-11H-pyrido[2,1-b]quinazoline-6-carboxamido)cyclohexane-1-carboxylic acid]", "values": [{"measurement": "pIC50", "setting": "[4]", "result": "> 7.00"}, {"measurement": "pIC50", "setting": "[3]", "result": "> 7.00"}]}
{"smiles": "O=C(O)c1ccc(-c2ccc3nc4c(C(=O)N[C@H]5CC[C@@H](C(=O)O)CC5)cccn4c(=O)c3c2)s1", "note": "[Example 47, 5-(6-(((1s,4s)-4-carboxycyclohexyl)carbamoyl)-11-oxo-11H-pyrido[2,1-b]quinazolin-2-yl)thiophene-2-carboxylic acid]", "values": [{"measurement": "pIC50", "setting": "[4]", "result": "> 7.00"}, {"measurement": "pIC50", "setting": "[3]", "result": "> 7.00"}]}
